Measured values published in PubChem BioAssay AID248 (DTP/NCI, 2004).
Toxic doses and inconclusive results are not listed. No stated cut-off is given here; in the data, active means T/C of 150% or more; inactive means T/C below 125%.

Tested on: L1210 leukemia ip in BDF1 mice, survival T/C
Assay: NCI In Vivo Anticancer Drug Screen. Data for tumor model L1210 Leukemia (intraperitoneal) in B6D2F1 (BDF1) mice
Conditions: endpoint: mean survival time, higher = longer survival
Method in brief: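 Antitumor effect is assessed in tumor-bearing animals. Survival in the compound arm is compared with a vehicle-dosed control arm and expressed as their quotient.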

[1] = dose: 100.0 mg/kg/injection, schedule: Q01DX009 (ip), vehicle: saline with Tween-80
[2] = dose: 100.0 mg/kg/injection, schedule: Q04DX003 (ip), vehicle: saline with Tween-80
[3] = dose: 200.0 mg/kg/injection, schedule: Q01DX009 (ip), vehicle: saline with Tween-80
[4] = dose: 200.0 mg/kg/injection, schedule: Q04DX003 (ip), vehicle: saline with Tween-80
[5] = dose: 400.0 mg/kg/injection, schedule: Q01DX009 (ip), vehicle: saline with Tween-80
[6] = dose: 400.0 mg/kg/injection, schedule: Q04DX003 (ip), vehicle: saline with Tween-80
[7] = dose: 100.0 mg/kg/injection, schedule: Q01DX001 (ip), vehicle: carboxymethylcellulose (CMC)
[8] = dose: 200.0 mg/kg/injection, schedule: Q01DX001 (ip), vehicle: carboxymethylcellulose (CMC)
[9] = dose: 400.0 mg/kg/injection, schedule: Q01DX001 (ip), vehicle: carboxymethylcellulose (CMC)
[10] = dose: 12.5 mg/kg/injection, schedule: Q01DX009 (ip), vehicle: Klucel (hydroxypropylcellulose) (HPC)
[11] = dose: 25.0 mg/kg/injection, schedule: Q01DX009 (ip), vehicle: Klucel (hydroxypropylcellulose) (HPC)
[12] = dose: 50.0 mg/kg/injection, schedule: Q01DX009 (ip), vehicle: Klucel (hydroxypropylcellulose) (HPC)
[13] = dose: 100.0 mg/kg/injection, schedule: Q04DX003 (ip), vehicle: Klucel (hydroxypropylcellulose) (HPC)
[14] = dose: 200.0 mg/kg/injection, schedule: Q04DX003 (ip), vehicle: Klucel (hydroxypropylcellulose) (HPC)
[15] = dose: 400.0 mg/kg/injection, schedule: Q04DX003 (ip), vehicle: Klucel (hydroxypropylcellulose) (HPC)
[16] = dose: 100.0 mg/kg/injection, schedule: Q04DX003 (ip), vehicle: saline
[17] = dose: 200.0 mg/kg/injection, schedule: Q04DX003 (ip), vehicle: saline
[18] = dose: 400.0 mg/kg/injection, schedule: Q04DX003 (ip), vehicle: saline
[19] = dose: 100.0 mg/kg/injection, schedule: Q01DX009 (ip), vehicle: saline
[20] = dose: 100.0 mg/kg/injection, schedule: Q01DX009 (ip), vehicle: Klucel (hydroxypropylcellulose) (HPC)
[21] = dose: 200.0 mg/kg/injection, schedule: Q01DX009 (ip), vehicle: Klucel (hydroxypropylcellulose) (HPC)
[22] = dose: 400.0 mg/kg/injection, schedule: Q01DX009 (ip), vehicle: Klucel (hydroxypropylcellulose) (HPC)
[23] = dose: 100.0 mg/kg/injection, schedule: Q01DX001 (ip), vehicle: saline
[24] = dose: 200.0 mg/kg/injection, schedule: Q01DX001 (ip), vehicle: saline
[25] = dose: 400.0 mg/kg/injection, schedule: Q01DX001 (ip), vehicle: saline

Measured: T/C

CC(=O)CC(=O)NC1CCCCC1
inactive: [1] 105 % of control | [2] 96 % of control | [3] 100 % of control | [4] 94 % of control | [5] 95 % of control | [6] 94 % of control

C=Cc1cc[n+](CCCCC[n+]2ccc(C=C)cc2)cc1
inactive: [7] 96 % of control | [8] 98 % of control | [9] 93 % of control

CN(C)CCCN=Cc1ccc(O)cc1O.CN(C)CCCN=Cc1ccc(O)cc1O.[Ni+2]
inactive: dose: 25.0 mg/kg/injection, schedule: Q04DX003 (ip), vehicle: saline with Tween-80 91 % of control | dose: 50.0 mg/kg/injection, schedule: Q04DX003 (ip), vehicle: saline with Tween-80 91 % of control | [2] 89 % of control

CCCCCCCCCC/C=C/c1c(C)[nH]c2ccccc2c1=O
inactive: dose: 100.0 mg/kg/injection, schedule: Q01DX009 (ip), vehicle: alcohol 98 % of control | dose: 100.0 mg/kg/injection, schedule: Q04DX003 (ip), vehicle: alcohol 93 % of control | dose: 200.0 mg/kg/injection, schedule: Q04DX003 (ip), vehicle: alcohol 100 % of control | dose: 400.0 mg/kg/injection, schedule: Q04DX003 (ip), vehicle: alcohol 88 % of control

CN(C(=O)COc1ccccc1)c1ccc([N+](=O)[O-])cc1
inactive: [1] 95 % of control | [3] 93 % of control | [5] 95 % of control

Cc1cnc2c(=O)[nH]c(=O)[nH]c2n1
inactive: [10] 102 % of control | [11] 98 % of control | [12] 96 % of control | [13] 96 % of control | [14] 92 % of control | [15] 92 % of control

O=C(NCc1ccccc1)C(Cc1ccccc1)(Cc1ccccc1)C(=O)NCc1ccccc1
inactive: [7] 92 % of control | [8] 90 % of control | [9] 92 % of control

Nc1c(C(F)(F)F)[nH]c(Cl)nc1=S
inactive: dose: 29.0 mg/kg/injection, schedule: Q01DX Z (ip), vehicle: methylcellulose (MC) 105 % of control | dose: 66.0 mg/kg/injection, schedule: Q01DX Z (ip), vehicle: methylcellulose (MC) 94 % of control

CCCCCCC/C=N/NC(=O)c1ccccc1
inactive: [13] 105 % of control | [14] 109 % of control | [15] 98 % of control

Cc1ccn(C)c(=O)c1
inactive: [16] 105 % of control | [17] 103 % of control | [18] 102 % of control

OC1OCCOC1O (stereo unspecified)
inactive: dose: 50.0 mg/kg/injection, schedule: Q01DX009 (ip), vehicle: saline 100 % of control | [19] 100 % of control | dose: 200.0 mg/kg/injection, schedule: Q01DX009 (ip), vehicle: saline 109 % of control | dose: 400.0 mg/kg/injection, schedule: Q01DX009 (ip), vehicle: saline 103 % of control

Cc1ccc(S(=O)(=O)Nc2ccc(C#N)c3ccccc23)cc1
inactive: [1] 92 % of control | [2] 90 % of control | [3] 89 % of control | [4] 95 % of control | [5] 89 % of control | [6] 87 % of control

O=C(NCCBr)Nc1ccccc1
inactive: [10] 97 % of control | [11] 108 % of control | [12] 108 % of control | dose: 80.0 mg/kg/injection, schedule: Q01DX009 (ip), vehicle: Klucel (hydroxypropylcellulose) (HPC) 103 % of control | dose: 115.0 mg/kg/injection, schedule: Q01DX009 (ip), vehicle: Klucel (hydroxypropylcellulose) (HPC) 114 % of control | dose: 170.0 mg/kg/injection, schedule: Q01DX009 (ip), vehicle: Klucel (hydroxypropylcellulose) (HPC) 95 % of control

CCCCCCCCCCCCCCCCCCNc1ccc(C(=O)OCC)cc1
inactive: dose: 37.5 mg/kg/injection, schedule: Q01DX009 (ip), vehicle: saline 94 % of control | dose: 75.0 mg/kg/injection, schedule: Q01DX001 (ip), vehicle: saline 86 % of control | dose: 75.0 mg/kg/injection, schedule: Q01DX009 (ip), vehicle: saline 95 % of control | dose: 75.0 mg/kg/injection, schedule: Q04DX003 (ip), vehicle: saline 87 % of control | dose: 150.0 mg/kg/injection, schedule: Q01DX009 (ip), vehicle: saline 96 % of control | dose: 150.0 mg/kg/injection, schedule: Q04DX003 (ip), vehicle: saline 87 % of control | dose: 300.0 mg/kg/injection, schedule: Q01DX001 (ip), vehicle: saline 88 % of control | dose: 300.0 mg/kg/injection, schedule: Q04DX003 (ip), vehicle: saline 92 % of control

O=C1Nc2ccccc2/C1=C/C(=O)c1c[nH]c2ccccc12
inactive: dose: 50.0 mg/kg/injection, schedule: Q01DX009 (ip), vehicle: saline with Tween-80 101 % of control | [1] 101 % of control | [3] 96 % of control

CN=C(N)Nc1ccc(NC(=O)Nc2ccc(NC(=O)Nc3ccc(NC(N)=NC)cc3)cc2)cc1
active: dose: 30.0 mg/kg/injection, schedule: Q01DX Z (ip), vehicle: carboxymethylcellulose (CMC) 170 % of control
inactive: dose: 3.75 mg/kg/injection, schedule: Q01DX Z (ip), vehicle: carboxymethylcellulose (CMC) 100 % of control | dose: 7.5 mg/kg/injection, schedule: Q01DX Z (ip), vehicle: carboxymethylcellulose (CMC) 110 % of control | dose: 31.0 mg/kg/injection, schedule: Q01DX Z (oral), vehicle: carboxymethylcellulose (CMC) 100 % of control | dose: 62.0 mg/kg/injection, schedule: Q01DX Z (oral), vehicle: carboxymethylcellulose (CMC) 110 % of control | dose: 125.0 mg/kg/injection, schedule: Q01DX Z (oral), vehicle: carboxymethylcellulose (CMC) 95 % of control | dose: 250.0 mg/kg/injection, schedule: Q01DX Z (oral), vehicle: carboxymethylcellulose (CMC) 101 % of control

CCCCCCCCC(CCCCCCCC)CC1CC2CC1C1CCCC21 (stereo unspecified)
inactive: dose: 75.0 mg/kg/injection, schedule: Q01DX001 (ip), vehicle: saline with Tween-80 92 % of control | dose: 150.0 mg/kg/injection, schedule: Q01DX001 (ip), vehicle: saline with Tween-80 98 % of control | dose: 300.0 mg/kg/injection, schedule: Q01DX001 (ip), vehicle: saline with Tween-80 95 % of control

O=C(O)c1ccccc1C(=O)c1ccc2c3c(cccc13)CC2
inactive: [20] 104 % of control | [13] 107 % of control | [21] 107 % of control | [14] 102 % of control | [22] 105 % of control | [15] 100 % of control

O=C(O)c1cc2ccc3ccccc3c2s1
inactive: [23] 87 % of control | [24] 88 % of control

O=C1c2ccccc2C(=O)N1OCc1ccc(CON2C(=O)c3ccccc3C2=O)cc1
inactive: [16] 101 % of control | [17] 95 % of control | [18] 95 % of control

COP(=O)(OC)C(=O)c1ccc([N+](=O)[O-])cc1
inactive: [23] 98 % of control | [24] 95 % of control | [25] 103 % of control

O=S(=O)(c1ccc(Cl)cc1)C(Cl)(Cl)Cl
inactive: [20] 93 % of control | [21] 97 % of control | [22] 96 % of control

O=C(Nc1ccccc1O)c1ccccc1Cl
inactive: [20] 96 % of control | [21] 98 % of control | [22] 91 % of control

CCN(CCO)c1ccc(N=Nc2ccc([N+](=O)[O-])cc2)cc1
inactive: dose: 100.0 mg/kg/injection, schedule: Q01DX001 (ip), vehicle: Klucel (hydroxypropylcellulose) (HPC) 105 % of control | dose: 200.0 mg/kg/injection, schedule: Q01DX001 (ip), vehicle: Klucel (hydroxypropylcellulose) (HPC) 96 % of control | dose: 400.0 mg/kg/injection, schedule: Q01DX001 (ip), vehicle: Klucel (hydroxypropylcellulose) (HPC) 100 % of control

CCCCCCCCCCCCc1c2ccccc2cc2ccccc12
inactive: [23] 97 % of control | [24] 98 % of control | [25] 92 % of control

CCCCCCCCCCCCNC=O
inactive: [19] 94 % of control

COc1ccc(NC(=O)CC=C(C)C)nn1
inactive: [12] 100 % of control | [20] 100 % of control | [13] 102 % of control | [21] 91 % of control | [14] 104 % of control | [15] 110 % of control
